{"source": "patent US20220323437A1", "about": "“METHODS FOR TREATING PULMONARY ARTERIAL HYPERTENSION” (ACTELION PHARMACEUTICALS LTD, priority 2019, published 2022)", "test": "Pharmacokinetics of selexipag and ACT-333679 after oral and i.v. selexipag in subjects with stable PAH (Phase 3 switch study)", "format": "in vivo, human", "conditions": "for AUC / Cmax: human, plasma, steady state; for AUC: read-out: AUCτ, ss Geom. Mean; for Cmax: read-out: Cmax, ss Geom. Mean", "description": "This was a prospective, multicenter, open-label, single-sequence, cross-over, Phase 3 study. Based on the dose of selexipag received at study entry, subjects were allocated to one of the following groups, selexipag 200-1000 μg b.i.d. or selexipag 1200-1600 μg b.i.d. See, FIG. 1. The study comprised the following periods:\n(ii) Treatment and observation period: The treatment and observation period included the following consecutive periods: • Period 1 included oral selexipag pre-treatment period for 1 day, in-hospital. This period started with intake of the morning dose of oral selexipag on Day 1 at Visit 2 and ended the following day, before initiation of the first infusion of i.v. selexipag. • Period 2 included i.v. selexipag treatment period for 36 hours [3 infusions], in-hospital. This period started in the morning of Day 2 at Visit 2 with the start of the first infusion of i.v. selexipag and ended in the evening of Day 3 at Visit 2 before the evening administration of oral selexipag. Administration of oral selexipag was interrupted during the i.v. selexipag treatment period. • Period 3 included oral selexipag post-treatment period for 7 to 11 day. This period started in the evening of Day 3 at Visit 2 with the administration of oral selexipag and ended 7-11 days later, at Visit 3.\nSelexipag was provided as a dry powder to be reconstituted as an injectable solution for i.v. administration. Before administration, selexipag dry powder was to be reconstituted and diluted with sterile 0.9% NaCl solution. Each subject received an i.v. selexipag dose that corresponded to the subject's individual stable dose of oral selexipag. […] See, Table 4.\nThe intravenous infusion took place over a 87-minute period (2 infusions on Day 2 and 1 infusion on Day 3)\nThe following PK endpoints were analyzed for selexipag and its active metabolite, ACT-333679, after oral selexipag in Period 1 and after i.v. selexipag administration in Period 2. See, FIG. 2. • The area under the plasma-concentration time curve (AUC) during a dose interval at steady state (AUCτ, ss). • The maximum plasma concentration at steady state (Cmax, ss). • The time to reach maximum plasma concentration at steady state (tmax, ss). • Trough plasma concentration at steady state (Ctrough, ss).", "note": "Read-outs that look alike come from different tables or passages of the source."}
{"smiles": "CC(C)N(CCCCOCC(=O)O)c1cnc(-c2ccccc2)c(-c2ccccc2)n1", "note": "[ACT-333679]", "values": [{"measurement": "tmax, ss between the i.v. and oral selexipag periods", "setting": "Period 2 vs Period 1", "result": "comparable"}, {"measurement": "slope of dose proportional increase in exposure", "setting": "after i.v. selexipag, 450-1800 μg b.i.d. dose range", "result": 0.697}, {"measurement": "exposure after i.v. and oral selexipag administration", "setting": "conclusion of the study", "result": "comparable"}, {"measurement": "AUC", "setting": "iv, Period 2 (i.v. selexipag)", "result": 15.9, "unit": "ng·h/mL"}, {"measurement": "Cmax", "setting": "iv, Period 2 (i.v. selexipag)", "result": 2.6, "unit": "ng/mL"}, {"measurement": "AUC", "setting": "Period 1 (oral selexipag)", "result": 19.3, "unit": "ng·h/mL"}, {"measurement": "Cmax", "setting": "Period 1 (oral selexipag)", "result": 3.3, "unit": "ng/mL"}, {"measurement": "dose-normalized geometric mean ratio (i.v./oral selexipag) for AUCτ, ss (90% CI)", "setting": "i.v. to oral dose ratio 1.125", "result": "0.80 (0.71, 0.90)"}, {"measurement": "dose-normalized geometric mean ratio (i.v./oral selexipag) for Cmax, ss (90% CI)", "setting": "i.v. to oral dose ratio 1.125", "result": "0.79 (0.65, 0.96)"}]}
